Assay results reported in US11673883B2, “Heterocyclic compounds as immunomodulators” (Incyte Corporation, priority 2016, dated 2023).

Biological target: PD-1/PD-L1 protein/protein interaction (Homo sapiens (Human), UniProt Q9NZQ7)
Assay: PD-1/PD-L1 Homogeneous Time-Resolved Fluorescence (HTRF) Binding Assay
Settings: recombinant human PD-L1 (19-238) His-tag, human PD-1 (25-167) Fc tag; 25° C., PBS pH 7.4
Description: Example A. PD-1/PD-L1 Homogeneous Time-Resolved Fluorescence (HTRF) Binding Assay
The assays were conducted in a standard black 384-well polystyrene plate with a final volume of 20 μL. Inhibitors were first serially diluted in DMSO and then added to the plate wells before the addition of other reaction components. The final concentration of DMSO in the assay was 1%. The assays were carried out at 25° C. in the PBS buffer (pH 7.4) with 0.05% Tween-20 and 0.1% BSA. Recombinant human PD-L1 protein (19-238) with a His-tag at the C-terminus was purchased from AcroBiosystems (PD1-H5229). Recombinant human PD-1 protein (25-167) with Fc tag at the C-terminus was also purchased from AcroBiosystems (PD1-H5257). PD-L1 and PD-1 proteins were diluted in the assay buffer and […] was added to the plate well. Plates were centrifuged and proteins were preincubated with inhibitors for 40 minutes. The incubation was followed by the addition of 10 μL of HTRF detection buffer supplemented with Europium cryptate-labeled anti-human IgG (PerkinElmer-AD0212) specific for Fc and anti-His antibody conjugated to SureLight®-Allophycocyanin (APC, PerkinElmer-AD0059H). After centrifugation, the plate was incubated at 25° C. for 60 min. before reading on a PHERAstar FS plate reader (665 nm/620 nm ratio). Final concentrations in the assay were […], 10 nM PD-L1, 1 nM europium anti-human IgG and 20 nM anti-His-Allophycocyanin. IC50 determination was performed by fitting the curve of percent control activity versus the log of the inhibitor concentration using the GraphPad Prism 5.0 software.

Sequence of PD-1/PD-L1 protein/protein interaction (Q9NZQ7 19-238): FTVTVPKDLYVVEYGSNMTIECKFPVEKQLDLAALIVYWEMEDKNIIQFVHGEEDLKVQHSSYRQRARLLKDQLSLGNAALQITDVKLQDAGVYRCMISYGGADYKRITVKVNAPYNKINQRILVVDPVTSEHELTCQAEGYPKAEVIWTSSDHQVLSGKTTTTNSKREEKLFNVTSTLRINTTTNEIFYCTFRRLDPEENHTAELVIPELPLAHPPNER

Structure (SMILES)	IC50
N#Cc1c(-c2ccc3c(c2)OCCO3)cccc1N1CCC(N[C@H]2C[C@@H](O)C2)CC1 [Example 1, 2-(2,3-dihydro-1,4-benzodioxin-6-yl)-6-{4-[(cis-3-hydroxycyclobutyl)amino]piperidin-1-yl}benzonitrile]	≤ 100 nM
N#Cc1c(-c2ccc3c(c2)OCCO3)cccc1N1CCC(NC2CCOCC2)CC1 [Example 7, 2-(2,3-dihydrobenzo[b][1,4]dioxin-6-yl)-6-(4-(tetrahydro-2H-pyran-4-ylamino)piperidin-1-yl)benzonitrile]	≤ 100 nM
N#Cc1c(-c2ccc3c(c2)OCCO3)cccc1N1CCC(N[C@@H]2CCCC[C@H]2CO)CC1 (relative stereo) [Example 12, 2-(2,3-dihydrobenzo[b][1,4]dioxin-6-yl)-6-(4-(trans-2-(hydroxymethyl)cyclohexylamino)piperidin-1-yl)benzonitrile]	≤ 100 nM
CO[C@H]1C[C@@H](NC2CCN(c3cccc(-c4ccc5c(c4)OCCO5)c3C#N)CC2)C1 [Example 14, 2-(2,3-dihydrobenzo[b][1,4]dioxin-6-yl)-6-(4-(cis-3-methoxycyclobutylamino)piperidin-1-yl)benzonitrile]	≤ 100 nM
N#Cc1c(-c2ccc3c(c2)OCCO3)cccc1N1CCC(NC2CCCC2CO)CC1 (stereo not drawn) [Example 17, 2-(2,3-dihydrobenzo[b][1,4]dioxin-6-yl)-6-(4-(cis-2-(hydroxymethyl)cyclopentylamino)piperidin-l-yl)benzonitrile]	≤ 100 nM
Cn1cc(CCNC2CCN(c3cccc(-c4ccc5c(c4)OCCO5)c3C#N)CC2)cn1 [Example 5, 2-(2,3-dihydrobenzo[b][1,4]dioxin-6-yl)-6-(4-(2-(1-methyl-1H-pyrazol-4-yl)ethylamino)piperidin-1-yl)benzonitrile]	≤ 100 nM
N#Cc1c(-c2ccc3c(c2)OCCO3)cccc1N1CCC(N[C@H]2C[C@H](O)C2)CC1 [Example 18, 2-(2,3-dihydrobenzo[b][1,4]dioxin-6-yl)-6-(4-(trans-3-hydroxycyclobutylamino)piperidin-1-yl)benzonitrile]	≤ 100 nM
N#Cc1c(-c2ccc3c(c2)OCCO3)cccc1N1CCC(NC2CCCOC2)CC1 (stereo not drawn) [Example 16, 2-(2,3-dihydrobenzo[b][1,4]dioxin-6-yl)-6-(4-(tetrahydro-2H-pyran-3-ylamino)piperidin-1-yl)benzonitrile]	≤ 100 nM
Cc1c(-c2ccccc2)cccc1N1CCC(NC2CCC(C#N)CC2)CC1 (single isomer, unassigned) [40 (peak 2), 4-(1-(2-methylbiphenyl-3-yl)piperidin-4-ylamino)cyclohexane carbonitrile]	≤ 100 nM

Further lines, results first:

IC50	Structure (SMILES)
100 to 500 nM	COc1cccc(-c2cccc(N3CCC(N4CCCC4)CC3)c2C#N)c1 [Example 48, 3′-methoxy-3-(4-(pyrrolidin-1-yl)piperidin-1-yl)biphenyl-2-carbonitrile]
≤ 100 nM	Cc1c(-c2ccccc2)cccc1N1CCC(NC2CC(C(=O)O)C2)CC1 (stereo not drawn) [Example 45, 3-(1-(2-methylbiphenyl-3-yl)piperidin-4-ylamino)cyclobutane-carboxylic acid]
≤ 100 nM	Cc1c(-c2ccccc2)cccc1N1CCC(NCC2(CO)CC2)CC1 [Example 26, (1-((1-(2-methylbiphenyl-3-yl)piperidin-4-ylamino)methyl)cyclopropyl)methanol]
≤ 100 nM	Cc1c(-c2ccccc2)cccc1N1CCC(N[C@H]2CC[C@H](O)CC2)CC1 [Example 30, trans-4-(1-(2-methylbiphenyl-3-yl)piperidin-4-ylamino)cyclohexanol]
≤ 100 nM	Cc1c(-c2ccccc2)cccc1N1CCC(NC2CC(CO)C2)CC1 (stereo not drawn) [Example 43, (3-(1-(2-methylbiphenyl-3-yl)piperidin-4-ylamino)cyclobutyl) methanol]
≤ 100 nM	CC(O)C1CCN(C2CCN(c3cccc(-c4ccc5c(c4)OCCO5)c3C#N)CC2)C1 (stereo not drawn) [Example 21, 2-(2,3-dihydrobenzo[b][1,4]dioxin-6-yl)-6-(4-(3-(1-hydroxyethyl)pyrrolidin-1-yl)piperidin-1-yl)benzonitrile]
≤ 100 nM	Cc1c(-c2ccccc2)cccc1N1CCC(NC2CCOC2)CC1 (racemic) [Example 42, 1-(2-methylbiphenyl-3-yl)-N-(tetrahydrofuran-3-yl)piperidin-4-amine]
≤ 100 nM	Cc1c(-c2ccccc2)cccc1N1CCC(NC2CCC(CC#N)CC2)CC1 (stereo not drawn) [Example 39, 2-(4-(1-(2-methylbiphenyl-3-yl)piperidin-4-ylamino)cyclohexyl) acetonitrile]
100 to 500 nM	N#Cc1c(C2CCCCC2)cccc1N1CCC(N2CCCC2)CC1 [Example 51, 2-cyclohexyl-6-(4-(pyrrolidin-1-yl)piperidin-1-yl)benzonitrile]
≤ 100 nM	N#Cc1c(-c2ccc3c(c2)OCCO3)cccc1N1CCC(NC2CCCCC2)CC1 [Example 20, 2-(4-(cyclohexylamino)piperidin-1-yl)-6-(2,3-dihydrobenzo[b][1,4]dioxin-6-yl)benzonitrile]
≤ 100 nM	Cc1c(-c2ccccc2)cccc1N1CCC(N2CCCC2)CC1 [Example 32, 1-(2-methylbiphenyl-3-yl)-4-(pyrrolidin-1-yl)piperidine]
≤ 100 nM	N#Cc1c(-c2ccc3c(c2)OCCO3)cccc1N1CCC(N[C@H]2CC[C@H](O)CC2)CC1 [Example 24, 2-(2,3-dihydrobenzo[b][1,4]dioxin-6-yl)-6-(4-(trans-4-hydroxycyclohexylamino)piperidin-1-yl)benzonitrile]
